Measured values taken from patent US7183276B2, “Azole compounds” (Takeda Pharmaceutical Company Limited, priority 2002, dated 2007).

Row | Structure (SMILES) | melting point [°C]
1 | O=C(CCc1oc(-n2cnc3ccccc32)nc1-c1ccc(Cl)cc1)Nc1ccc(OC(F)(F)F)cc1 [Example 122, 3-[2-(1H-benzimidazol-1-yl)-4-(4-chlorophenyl)-5-oxazolyl]-N-[4-(trifluoromethoxy)phenyl]propionamide] | 174 to 175
2 | O=C(CCc1oc(-n2cnc3ccccc32)nc1-c1ccc(Cl)cc1)NCC(=O)NCc1ccccc1 [Example 148, 2-({3-[2-(1H-benzimidazol-1-yl)-4-(4-chlorophenyl)-5-oxazolyl]propanoyl}amino)-N-benzylacetamide] | 186 to 187
3 | CCOC(=O)c1ccc(NC(=O)/C=C/c2oc(-c3ccccc3)nc2-c2ccc(Cl)cc2)cc1 [Example 56, (2E)-3-[4-(4-chlorophenyl)-2-phenyl-5-oxazolyl]-N-[4-(ethoxycarbonyl)phenyl]propenamide] | 135 to 140
4 | CCOP(=O)(Cc1ccc(NC(=O)CCc2oc(-c3ccc4ccccc4c3)nc2-c2ccc(Cl)cc2)cc1)OCC | 191 to 192
5 | O=C(CCCc1sc(-n2cnc3ccccc32)nc1-c1ccc(Cl)cc1)NCc1cc(Br)ccc1F [Example 216, 4-[2-(1H-benzimidazol-1-yl)-4-(4-chlorophenyl)-5-thiazolyl]-N-(5-bromo-2-fluorobenzyl)butanamide] | 160 to 161
6 | Cc1ccc(CNC(=O)CCc2sc(-n3cnc4ccccc43)nc2-c2ccc(Cl)cc2)cc1 [Example 203, 3-[2-(1H-benzimidazol-1-yl)-4-(4-chlorophenyl)-5-thiazolyl]-N-(4-methylbenzyl)propionamide] | 191 to 192
7 | O=C(CCc1oc(-n2cnc3ccccc32)nc1-c1ccc(Cl)cc1)NCC(=O)Nc1ccccc1 [Example 149, 2-({3-[2-(1H-benzimidazol-1-yl)-4-(4-chlorophenyl)-5-oxazolyl]propanoyl}amino)-N-phenylacetamide] | 250 to 251
8 | CCOP(=O)(Cc1ccc(NC(=O)CCc2sc(NC(=O)NCc3ccccc3)nc2-c2ccc(Cl)cc2)cc1)OCC | 144 to 145
9 | CCOP(=O)(Cc1ccc(NC(=O)/C=C/c2sc(-n3cnc4ccccc43)nc2C(C)C)cc1)OCC | 198 to 199
10 | COc1ccccc1NC(=O)CCc1oc(-n2ccnc2C)nc1-c1ccc(Cl)cc1 [Example 71, 3-[4-(4-chlorophenyl)-2-(2-methyl-1-imidazolyl)-5-oxazolyl]-N-(2-methoxyphenyl)propionamide] | 153 to 154
11 | CCOP(=O)(Cc1ccc(NC(=O)CCc2sc(NC(=S)NCc3ccccc3)nc2-c2ccc(Cl)cc2)cc1)OCC | 202 to 203
12 | NS(=O)(=O)c1ccc(CNC(=O)CCc2oc(-c3ccccc3)nc2-c2ccc(Cl)cc2)cc1 [Example 165, N-[4-(aminosulfonyl)benzyl]-3-[4-(4-chlorophenyl)-2-phenyl-5-oxazolyl]propionamide] | 225 to 227
13 | CCOP(=O)(OCC)C(O)c1ccc(NC(=O)CCc2oc(-n3cnc4ccccc43)nc2-c2ccc(Cl)cc2)cc1 (stereo not shown) | 171 to 172
14 | COc1ccccc1NC(=O)CCc1oc(-n2cnc3ccccc32)nc1-c1ccc(Cl)cc1 [Example 115, 3-[2-(1H-benzimidazol-1-yl)-4-(4-chlorophenyl)-5-oxazolyl]-N-(2-methoxyphenyl)propionamide] | 194 to 195
15 | CCOP(=O)(Cc1ccc(NC(=O)CCc2oc(-n3nnc4ccccc43)nc2-c2ccc(Cl)cc2)cc1)OCC | 91 to 92
16 | CCOP(=O)(Cc1ccc(NC(=O)CCc2sc(-n3cnc4ccccc43)nc2C(C)C)cc1)OCC | 171 to 172
17 | CN(C)c1ccc(NC(=O)Cc2ccc(NC(=O)CCc3oc(-n4cnc5ccccc54)nc3-c3ccc(Cl)cc3)cc2)cc1 [Example 140, 2-[4-(N-{3-[2-(1H-benzimidazol-1-yl)-4-(4-chlorophenyl)-5-oxazolyl]propanoyl}amino)phenyl]-N-[4-(dimethylamino)phenyl]acetamide] | 169 to 170
18 | CCOP(=O)(Cc1ccc(NC(=O)CCCc2oc(-c3ccccc3)nc2-c2ccc(Cl)cc2)cc1)OCC | 152 to 153
19 | O=C(CCc1oc(-c2ccccc2)nc1-c1ccc(Cl)cc1)Nc1ccc(CN2CCCCC2)cc1 [Example 95, 3-[4-(4-chlorophenyl)-2-phenyl-5-oxazolyl]-N-{4-[(1-piperidinyl)methyl]phenyl}propionamide] | 223 to 225
20 | CCOP(=O)(Cc1ccc(NC(=O)CCc2oc(Cl)nc2-c2ccc(Cl)cc2)cc1)OCC | 137 to 138
21 | CC(C)c1ccc(NC(=O)CCc2oc(-n3cnc4ccccc43)nc2-c2ccc(Cl)cc2)cc1 [Example 126, 3-[2-(1H-benzimidazol-1-yl)-4-(4-chlorophenyl)-5-oxazolyl]-N-(4-isopropylphenyl)propionamide] | 232 to 233
22 | CCOP(=O)(Cc1ccc(NC(=O)CCCCc2sc(-n3cnc4ccccc43)nc2-c2ccc(Cl)cc2)cc1)OCC | 168 to 169

Row | Structure (SMILES) | melting point [°C]
23 | Cc1ccc(CNC(=O)CCc2oc(-n3cnc4ccccc43)nc2-c2ccc(Cl)cc2)cc1 [Example 146, 3-[2-(1H-benzimidazol-1-yl)-4-(4-chlorophenyl)-5-oxazolyl]-N-(4-methylbenzyl)propionamide] | 210 to 212
24 | COc1cc(CNC(=O)CCc2oc(-n3cnc4ccccc43)nc2-c2ccc(Cl)cc2)cc(OC)c1 [Example 180, 3-[2-(1H-benzimidazol-1-yl)-4-(4-chlorophenyl)-5-oxazolyl]-N-(3,5-dimethoxybenzyl)propionamide] | 198 to 200
25 | CCOP(=O)(Cc1ccc(NC(=O)CCc2sc(-c3ccccc3)nc2-c2ccc(Cl)cc2)cc1)OCC | 164 to 165
26 | O=C(CCc1oc(-n2cnc3ccccc32)nc1-c1ccc(Cl)cc1)NCc1cc(Br)ccc1F [Example 167, 3-[2-(1H-benzimidazol-1-yl)-4-(4-chlorophenyl)-5-oxazolyl]-N-(5-bromo-2-fluorobenzyl)propionamide] | 183 to 184
27 | Cc1cc(Cl)ccc1CNC(=O)CCc1oc(-n2cnc3ccccc32)nc1-c1ccc(Cl)cc1 [Example 178, 3-[2-(1H-benzimidazol-1-yl)-4-(4-chlorophenyl)-5-oxazolyl]-N-(4-chloro-2-methylbenzyl)propionamide] | 200 to 201
28 | Cc1ccc(CNC(=O)CCc2oc(-n3cnc4ccccc43)nc2-c2ccc(Cl)cc2)c(C)c1 [Example 175, 3-[2-(1H-benzimidazol-1-yl)-4-(4-chlorophenyl)-5-oxazolyl]-N-(2,4-dimethylbenzyl)propionamide] | 218 to 219
29 | CN1CCC(N(C)C(=O)CCc2oc(-n3cnc4ccccc43)nc2-c2ccc(Cl)cc2)CC1 [Example 193, 3-[2-(1H-benzimidazol-1-yl)-4-(4-chlorophenyl)-5-oxazolyl]-N-methyl-N-(1-methyl-4-piperidinyl)propionamide] | 133 to 134
30 | Cc1ccc(CNC(=O)CCCc2sc(-n3cnc4ccccc43)nc2-c2ccc(Cl)cc2)cc1 [Example 217, 4-[2-(1H-benzimidazol-1-yl)-4-(4-chlorophenyl)-5-thiazolyl]-N-(4-methylbenzyl)butanamide] | 138 to 139
31 | O=C(CCc1oc(-n2cnc3ccccc32)nc1-c1ccc(Cl)cc1)Nc1ccc(C(F)(F)F)cc1 [Example 121, 3-[2-(1H-benzimidazol-1-yl)-4-(4-chlorophenyl)-5-oxazolyl]-N-[4-(trifluoromethyl)phenyl]propionamide] | 259 to 263
32 | O=C(CCc1oc(-n2cnc3ccccc32)nc1-c1ccc(Cl)cc1)NCc1ccccc1F [Example 137, 3-[2-(1H-benzimidazol-1-yl)-4-(4-chlorophenyl)-5-oxazolyl]-N-(2-fluorobenzyl)propionamide] | 202 to 203
33 | O=C(CCc1oc(-n2cnc3ccccc32)nc1-c1ccc(Cl)cc1)NCc1c(F)cccc1F [Example 156, 3-[2-(1H-benzimidazol-1-yl)-4-(4-chlorophenyl)-5-oxazolyl]-N-(2,6-difluorobenzyl)propionamide] | 225 to 226
34 | CC(C)(C)c1ccc(CNC(=O)CCc2oc(-n3cnc4ccccc43)nc2-c2ccc(Cl)cc2)cc1 [Example 144, 3-[2-(1H-benzimidazol-1-yl)-4-(4-chlorophenyl)-5-oxazolyl]-N-[4-tert-butylbenzyl]propionamide] | 170 to 171
35 | COc1cc(NC(=O)CCc2oc(-n3cnc4ccccc43)nc2-c2ccc(Cl)cc2)cc(OC)c1OC [Example 127, 3-[2-(1H-benzimidazol-1-yl)-4-(4-chlorophenyl)-5-oxazolyl]-N-(3,4,5-trimethoxyphenyl)propionamide] | 228 to 229
36 | Cc1nccn1-c1nc(-c2ccc(Cl)cc2)c(CCC(=O)Nc2ccc(CC#N)cc2)o1 [Example 141, 3-[4-(4-chlorophenyl)-2-(2-methyl-1-imidazolyl)-5-oxazolyl]-N-[4-(cyanomethyl)phenyl]propionamide] | 187 to 188
37 | NC(=O)CCc1oc(Oc2ccccc2)nc1-c1ccc(Cl)cc1 [Example 38, 3-[4-(4-chlorophenyl)-2-phenoxy-5-oxazolyl]propionamide] | 139 to 140
38 | CCOP(=O)(Cc1ccc(NC(=O)Cc2oc(-c3ccccc3)nc2-c2ccc(Cl)cc2)cc1)OCC | 173 to 174
39 | CN(Cc1ccc(NC(=O)CCc2oc(-c3ccccc3)nc2-c2ccc(Cl)cc2)cc1)C1CCOCC1 [Example 94, 3-[4-(4-chlorophenyl)-2-phenyl-5-oxazolyl]-N-(4-{[N-methyl-N-(4-tetrahydropyranyl)amino]methyl}phenyl)propionamide] | 154 to 155
40 | CCOP(=O)(Cc1ccc(NC(=O)Cc2sc(-n3cnc4ccccc43)nc2-c2ccc(Cl)cc2)cc1)OCC | 154 to 155
41 | NC(=O)CCc1oc(-c2ccc(F)cc2)nc1-c1ccc(Cl)cc1 [Example 23, 3-[4-(4-chlorophenyl)-2-(4-fluorophenyl)-5-oxazolyl]propionamide] | 212 to 213
42 | CSc1ccc(NC(=O)CCc2oc(-n3cnc4ccccc43)nc2-c2ccc(Cl)cc2)cc1 [Example 96, 3-[2-(1H-benzimidazol-1-yl)-4-(4-chlorophenyl)-5-oxazolyl]-N-{4-(methylsulfanyl)phenyl}propionamide] | 276 to 277
43 | CCOP(=O)(OCC)c1ccc(NC(=O)CCc2sc(-c3ccccc3)nc2-c2ccc(Cl)cc2)cc1 | 186 to 187
